Results on 1 compound are retold here after article PMC4111400 (Journal of Medicinal Chemistry, 2014).

Where two headings read alike, the source gives them in different places.

Experiment [1] concerns Na+ channels in CAD cells. Kind of experiment: frequency. Format: cell-based, mouse. The note with it: 500 μM (Figure 9 legend: concentrations greater than 500 μM).
In experiment [2] the test system is subcutaneous Metrazol (scMet) seizure. As to conditions: 10−13; cited from earlier work.
Experiment [3] has as its system hippocampal kindled seizure. The note with it: ip; cited from earlier work.
In experiment [4] the test system is Na+ channels in CAD cells. The note with it: cited from earlier work.
In experiment [5] the test system is Na+ channels in CAD cells. The note with it: 100 μM; cited from earlier work.

Take `COC[C@@H](NC(C)=O)C(=O)NCc1ccccc1` [(R)-1, (R)-N-Benzyl 2-acetamido-3-methoxypropionamide]: the “frequency (use) inhibition of Na+ currents” value was “significant inhibition of use-dependence” in experiment [1] and “not observed notable frequency (use) inhibition of Na^+ currents” in experiment [5]. Further, in experiment [2], the “activity in the scMet model” value is reported as “no activity”. For the same compound, the “ED50, rat hippocampal seizure model” value in experiment [3] was 14 mg/kg. The “effect on Na+ channel fast inactivation” value in experiment [4] is listed as “did not affect Na^+ channel fast inactivation”.
